These results are taken from ChEMBL document CHEMBL4152237, “Identification of novel β-lactams and pyrrolidinone derivatives as selective Histamine-3 receptor (H3R) modulators as possible anti-obesity agents” (Eur J Med Chem, 2018).

For test [1], the target named is T1, 5-hydroxytryptamine receptor 2C (Homo sapiens) (UniProt P28335).
T1 sequence (whole entry): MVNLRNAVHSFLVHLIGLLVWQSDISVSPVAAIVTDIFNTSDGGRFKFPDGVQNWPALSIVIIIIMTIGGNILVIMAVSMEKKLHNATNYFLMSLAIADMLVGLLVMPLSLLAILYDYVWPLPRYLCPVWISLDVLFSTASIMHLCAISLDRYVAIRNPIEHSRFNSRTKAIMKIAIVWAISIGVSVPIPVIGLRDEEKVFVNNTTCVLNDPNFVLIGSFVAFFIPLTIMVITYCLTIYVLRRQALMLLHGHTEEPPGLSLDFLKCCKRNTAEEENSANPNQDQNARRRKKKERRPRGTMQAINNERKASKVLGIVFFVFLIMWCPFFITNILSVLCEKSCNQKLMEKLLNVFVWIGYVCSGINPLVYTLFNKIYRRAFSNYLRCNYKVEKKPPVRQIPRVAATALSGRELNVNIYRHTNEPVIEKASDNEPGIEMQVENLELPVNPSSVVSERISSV
The test is described as follows: Agonist activity at human 5-HT2C expressed in HEK293 cells harboring luc2P/NFAT-RE plasmid at 10 uM after 6 to 8 hrs by luciferase reporter gene assay. Type of test: functional, cell-based.

Test [2] deals with Histamine H3 receptor (Homo sapiens, UniProt Q9Y5N1). The experiment in a line: Agonist activity at human H3R expressed in HEK293 cells harboring glosensor-22F cAMP plasmid DNA assessed as inhibition of forskolin-stimulated cAMP accumulation at 10 uM preincubated with cells followed by forskolin addition measured after 10 mins by luminescence assay relative to control. Type of test: functional, cell-based.

The source made the active and inactive calls. How the calls were made is not given here.

Histamine H3 receptor, sequence (Q9Y5N1 whole entry): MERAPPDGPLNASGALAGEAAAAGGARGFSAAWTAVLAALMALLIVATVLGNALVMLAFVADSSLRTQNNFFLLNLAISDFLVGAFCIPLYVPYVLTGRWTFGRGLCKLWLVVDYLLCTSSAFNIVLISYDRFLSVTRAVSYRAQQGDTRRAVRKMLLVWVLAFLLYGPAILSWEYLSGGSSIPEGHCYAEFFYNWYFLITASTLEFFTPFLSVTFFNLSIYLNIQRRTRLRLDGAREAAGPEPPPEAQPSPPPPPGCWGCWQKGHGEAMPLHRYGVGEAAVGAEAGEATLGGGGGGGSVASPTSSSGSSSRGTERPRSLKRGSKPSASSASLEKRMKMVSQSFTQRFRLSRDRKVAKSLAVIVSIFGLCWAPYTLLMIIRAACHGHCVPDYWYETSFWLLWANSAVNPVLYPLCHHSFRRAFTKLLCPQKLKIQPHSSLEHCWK

Consider `CC(C)(C)NC(=O)C(c1ccc(C#N)cc1)N1C(=O)C(I)=C(c2ccccc2)C12C=CC(=O)C=C2` (stereo not given), for which, in test [1], the result was inactive. In test [2], the inhibition result was “inactive”.

As for `COc1cc(N2C(=O)C(=Cc3ccccc3)C2(C(=O)NC(C)(C)C)c2cc(C)cc(C)c2)cc(OC)c1OC` (stereo not given), the result in test [1] was inactive. Moreover, in test [2], the inhibition entry is “inactive”.

For `COc1cc(OC)c(C(C(=O)NC2CCCCC2)N2C(=O)C(I)=C(c3ccccc3)C23C=CC(=O)C=C3)cc1OC` (stereo not given), the outcome in test [1] was inactive. The inhibition entry in test [2] is “inactive”.

Consider `COc1ccc(NC2(c3ccc(Cl)c(F)c3)C(=O)N(C3CCCCC3)C(=O)/C2=C/c2ccccc2)cc1OC` (stereo not given), for which the result in test [1] was inactive. For the same molecule, the inhibition result in test [2] was “inactive”.

For `COc1ccc(N2C(=O)C(=Cc3ccccc3)C2(C(=O)NC(C)(C)C)c2ccccc2)cc1` (stereo not given), in test [1], the result was inactive. In addition, the inhibition result in test [2] is “inactive”.

Take `CC(C)(C)NC(=O)C(c1ccccc1[N+](=O)O)N1C(=O)C(I)=C(c2ccccc2)C12C=CC(=O)C=C2` (stereo not given): in test [1], the result was inactive. Besides, the inhibition entry in test [2] was “inactive”.

For `COc1ccc(C2=C(c3ccccc3)C3(C=CC(=O)C=C3)N(C(C(=O)NC3CCCCC3)c3ccc(OC)c(C)c3)C2=O)cc1` (stereo not given), the result in test [1] was inactive. The inhibition result in test [2] was “inactive”.

As to `CC(C)(C)NC(=O)C(c1cc2c(cc1Br)OCO2)N1C(=O)C(I)=C(c2ccccc2)C12C=CC(=O)C=C2` (stereo not given), the outcome in test [1] was inactive. Moreover, the inhibition entry in test [2] was “inactive”.

Regarding `COc1ccc(N2C(=O)/C(=C\c3ccccc3)C2(C(=O)NC(C)(C)C)c2cc(C)cc(C)c2)cc1` (stereo not given), in test [1], the result was inactive. The inhibition result in test [2] is “inactive”.

For `O=C1C=C[C@]23C(c4ccccc4)=CC(=O)N2[C@H](c2cccc(Br)c2)C(=O)N[C@@H]3C1`, the result in test [1] was inactive. In test [2], the inhibition entry was “inactive”.

For `COC1=CC2(C=C(OC)C1=O)C(c1ccccc1)=C(I)C(=O)N2C(C(=O)NC1CCCCC1)c1cccc([N+](=O)[O-])c1` (stereo not given), the outcome in test [1] was inactive. Besides, in test [2], the inhibition result is “inactive”.

For the molecule `CN(C)c1ccc([C@@H]2C(=O)N[C@@H]3CC(=O)C=C[C@@]34C(c3ccccc3)=CC(=O)N24)cc1`, in test [1], the outcome was inactive. Besides, the inhibition result in test [2] was “inactive”.

For `COC1=CC2(C=C(OC)C1=O)C(c1ccccc1)=C(c1cccc3c1OCO3)C(=O)N2C(C(=O)NC1CCCCC1)c1cc(OC)c(OC)c(OC)c1` (stereo not given), the result in test [1] was inactive. In addition, the inhibition result in test [2] is “inactive”.

Regarding `O=C1C=CC2(C=C1)C(c1ccccc1)=C(I)C(=O)N2C(C(=O)NC1CCCCC1)c1ccccc1Br` (stereo not given), the outcome in test [1] was inactive. In addition, the inhibition entry in test [2] was “inactive”.

Take `COc1ccc(NC2(c3ccc(Br)cc3)C(=O)N(C3CCCCC3)C(=O)/C2=C/c2ccccc2)cc1OC` (stereo not given): in test [1], the result was inactive. In addition, the inhibition result in test [2] was “inactive”.

Take `O=C1C=C[C@]23C(c4ccccc4)=CC(=O)N2[C@H](c2cccc([N+](=O)[O-])c2)C(=O)N[C@@H]3C1`: the result in test [1] was inactive. Also, the inhibition result in test [2] was “inactive”.

In the case of `COC1=CC2(C=C(OC)C1=O)C(c1ccccc1)=C(I)C(=O)N2C(C(=O)NC1CCCCC1)c1cc(OC)c(OC)c(OC)c1` (stereo not given), in test [1], the outcome was inactive. Further, the inhibition entry in test [2] was “inactive”.

For `COc1ccc(N2C(=O)C(=Cc3ccccc3)C2(C(=O)NC(C)(C)C)c2ccc(OC)cc2)cc1` (stereo not given), the outcome in test [1] was inactive. Also, the inhibition result in test [2] is “inactive”.

Consider `O=C1C=CC2(C=C1)C(c1ccccc1)=C(I)C(=O)N2C(C(=O)NC1CCCCC1)c1ccc(Cl)cc1` (stereo not given), for which the result in test [1] was inactive. Further, the inhibition entry in test [2] is “inactive”.

With `N#Cc1ccc([C@@H]2C(=O)N[C@@H]3CC(=O)C=C[C@@]34C(c3ccccc3)=CC(=O)N24)cc1`, the result in test [1] was inactive.

For `COc1ccc(N2C(=O)/C(=C\c3ccccc3)C2(C(=O)NC(C)(C)C)c2cc(F)cc(F)c2)cc1` (stereo not given), in test [1], the outcome was inactive.
